Measurements published in patent US20040071653A1, “Antimicrobial ternary surfactant blend comprising cationic, anionic, and bridging surfactants, and methods of preparing same” (Stepan Company, priority 2000, published 2004).

Legend:
[1] = system: Escherichia coli (ATCC 11229); assay: Minimum Inhibitory Concentration test, bacteriostatic responses; assay type: cell-based; settings: for Bacteriostatic response E. coli: triplicate; for Minimum Inhibitory Concentration E. coli: lowest concentration completely inhibiting growth in all three replicates
Method: (§1) [table] [table] Add 0.1 ml of inoculum to each 20×150 mm test tube containing 9.0 ml of Nutrient or Sabouraud Dextrose Broth and 1 ml of a aqueous dilution of the test sample. Vortex tube to mix then incubate bacteria inoculated tubes at 36±1° C. for a minimum of 48±1 hour and fungi inoculated tubes at 28° C. for 7-10 days. Following incubation, observe tubes visually for the presence of growth (i.e. turbidity). Perform all testing in triplicate.

[2] = system: Pseudomonas aeruginosa (ATCC 15442); assay: as above; assay type: cell-based; settings: for Minimum Inhibitory Concentration P. aeruginosa: lowest concentration completely inhibiting growth in all three replicates; for Bacteriostatic response P. aeruginosa: triplicate
Method: as §1

[3] = system: Staphylococcus aureus (ATCC 6538); assay: as above; assay type: cell-based; settings: for Bacteriostatic response S. aureus: triplicate; for Minimum Inhibitory Concentration S. aureus: lowest concentration completely inhibiting growth in all three replicates
Method: as §1

[4] = system: Aspergillus niger (ATCC 16404); assay: Minimum Inhibitory Concentration test, fungistatic responses; assay type: cell-based; settings: for Fungistatic response A. niger: triplicate; for Minimum Inhibitory Concentration A. niger: lowest concentration completely inhibiting growth in all three replicates
Method: as §1

[5] = system: Candida albicans (ATCC 10231); assay: as above; assay type: cell-based; settings: for Fungistatic response C. albicans: triplicate; for Minimum Inhibitory Concentration C. albicans: lowest concentration completely inhibiting growth in all three replicates
Method: as §1

[6] = Surface tension measurement; assay type: physicochemical; settings: 0.1% surfactant blend in water
Description: (§2) In the following examples, all amounts are stated in percent by weight of active material unless indicated otherwise. Surface tension measurements, Draves wetting measurements, and Ross Miles foaming initial and final measurements all were taken at 0.1% concentration of the surfactant blend in water.

[7] = Draves wetting measurement; assay type: physicochemical; settings: 0.1% in water
Description: as §2

[8] = Ross Miles foaming, initial and final; assay type: physicochemical; settings: 0.1% in water
Description: as §2

[9] = system: Aspergillus niger (ATCC 6275); assay: Time-Kill; assay type: cell-based; settings: 100 ppm active
Method: (§3) Formulation 11-1 was prepared as described above and evaluated at two different concentrations against various microorganisms to determine the time required to kill certain levels of the microorganisms. Control formulation 11-2 was also tested in this assay at the same concentrations.
(§4) Preparation: Transfer each organism from stock slant to sterile Nutrient Broth (NB) tube. Incubate NB tubes at 36±1° C. After 24 hours incubation, subculture each broth culture to fresh tube of sterile NB. Repeat subculturing procedure at 24 hour intervals. Use cultures for testing after at least three consecutive 24 hour subculturings.
(§5) 2. Dispense 4.9 gram aliquots of each sample* into sterile medication tubes. Use one tube per organism. (*log10 reductions can be calculated by subtracting the log10 of the average inoculum count from the log10 of the test substance count after 30 seconds, 1 minute or 5 minutes contact)
(§6) 3. Centrifuge 18-24 hour broth culture of each test organism. Decant supernatant and re-suspend in equal volume of phosphate buffer. Re-centrifuge and re-suspend in phosphate buffer. Prepare 1:10 dilution of each culture suspension by adding 2 ml of culture to 18 ml of phosphate buffer. Mix by vortexing. Use this 1:10 dilution as the test inoculum.
(§7) 4. Perform initial plate count of the test inoculum by adding 0.1 ml of the inoculum to 4.9 grams of sterile distilled water. Vortex to mix, then remove 1 ml of solution and dilute in D/E Broth to 1:100,000. Plate 1:1,000, 1:10,000, and 1:100,000 dilutions in Microbial Content Agar (Difco).
(§8) 5. Begin testing of substances by adding 0.1 ml of test inoculum to sample tube. Vortex to mix. After 30 seconds, remove 1 ml of sample and add to 9 mls of DE broth, rinse pipette 5 times with sample and vortex. Remove additional 1 ml sample after 1 and 5 minutes contact and add to 9 mls of D/E Broth. Dilute each tube to 1:10,000 in D/E Broth and plate 1:1,000, 1:10,000, and 1:100,000 dilutions in Microbial Content Agar.
(§9) 7. After completion of step 6, perform final plate count of inoculum suspension by adding 0.1 ml of the suspension to 4.9 grams of sterile distilled water. Vortex to mix then remove 1 ml of solution and dilute in D/E Broth to 1:100,000. Plate 1:1,000, 1:10,000, and 1:100,000 dilutions in Microbial Content Agar (Difco).
(§10) 8. Incubate plates at 36±1° C. for 48 hours.
(§11) 9. Record all test results and calculate percent kills* after 30 seconds, 1 minute, and 5 minutes contact as follows: (*log10 reductions can be calculated by subtracting the log10 of the average inoculum count from the log10 of the test substance count after 30 seconds, 1 minute or 5 minutes contact) [formula]
(§12) X=Average of initial and final inoculum control counts, org/ml (Note: The difference between initial and final inoculum counts must be≦1 log for a valid study)
(§13) Y=Test substance bacterial count as org/ml after 30 seconds, 1 minute, or 5 minutes contact

[10] = system: Candida albicans (ATCC 10231); assay: Time-Kill; assay type: cell-based; settings: 100 ppm active
Method: as §3, §4, §5, §6, §7, §8, §9, §10, §11, §12, §13

[11] = system: Escherichia coli (ATCC 11229); assay: Time-Kill; assay type: cell-based; settings: 100 ppm active
Method: as §3, §4, §5, §6, §7, §8, §9, §10, §11, §12, §13

[12] = system: Staphylococcus aureus (ATCC 6538); assay: Time-Kill; assay type: cell-based; settings: 100 ppm active
Method: as §3, §4, §5, §6, §7, §8, §9, §10, §11, §12, §13

Pa (ATCC 9027) = assay: Time-Kill; assay type: cell-based, Pseudomonas aeruginosa; settings: 50 ppm active
Method: as §3, §4, §5, §6, §7, §8, §9, §10, §11, §12, §13

[13] = system: Psudomonas aeruginosa (ATCC 15442); assay: Time-Kill; assay type: cell-based, Pseudomonas aeruginosa; settings: 100 ppm active
Method: as §3, §4, §5, §6, §7, §8, §9, §10, §11, §12, §13

CCCCCCCCCCCC[N+](C)(C)[O-] [AMMONYX-LO, Lauramine oxide]
Bacteriostatic response E. coli ([1]; 1000 ppm active): 000 | Minimum Inhibitory Concentration E. coli [1]: 1000 ppm, active | Minimum Inhibitory Concentration P. aeruginosa [2]: >1000 ppm, active | Bacteriostatic response S. aureus ([3]; 100 ppm active): 000 | Bacteriostatic response S. aureus ([3]; 1000 ppm active): 000 | Minimum Inhibitory Concentration S. aureus [3]: 100 ppm, active | Fungistatic response A. niger ([4]; 100 ppm active): 000 | Fungistatic response A. niger ([4]; 1000 ppm active): 000 | Minimum Inhibitory Concentration A. niger [4]: 100 ppm, active | Fungistatic response C. albicans ([5]; 100 ppm active): 000 | Fungistatic response C. albicans ([5]; 1000 ppm active): 000 | Minimum Inhibitory Concentration C. albicans [5]: 100 ppm, active

CCCCCCCCS(=O)(=O)[O-].[Na+] [BIO-TERGE PAS-8S, Sodium 1-octane sulfonate]
Minimum Inhibitory Concentration E. coli [1]: >1000 ppm, active | Minimum Inhibitory Concentration P. aeruginosa [2]: >1000 ppm, active | Minimum Inhibitory Concentration S. aureus [3]: >1000 ppm, active | Minimum Inhibitory Concentration A. niger [4]: >1000 ppm, active | Minimum Inhibitory Concentration C. albicans [5]: >1000 ppm, active

CCCCCCCCCC[N+](C)(C)C.[Cl-] [QC10, Decyltrimethylammonium chloride]
Surface Tension [6]: 39.28 mN/m | Wetting [7]: 100 s | Foaming Final [8]: 0/0 cm | Foaming Initial [8]: 0/0 cm

Cocamidopropyl betaine [Amphosol ® CA]
Surface Tension [6]: 36.75 mN/m | Wetting [7]: 100 s | Foaming Final [8]: 12.9 cm | Foaming Initial [8]: 13 cm

N-Alkyl dimethyl benzyl ammonium chloride [BTC 65NF]
Bacteriostatic response E. coli ([1]; 10 ppm active): 000 | Bacteriostatic response E. coli ([1]; 100 ppm active): 000 | Bacteriostatic response E. coli ([1]; 1000 ppm active): 000 | Minimum Inhibitory Concentration E. coli [1]: 10 ppm, active | Bacteriostatic response P. aeruginosa ([2]; 100 ppm active): 000 | Bacteriostatic response P. aeruginosa ([2]; 1000 ppm active): 000 | Minimum Inhibitory Concentration P. aeruginosa [2]: 100 ppm, active | Bacteriostatic response S. aureus ([3]; 1 ppm active): 000 | Bacteriostatic response S. aureus ([3]; 10 ppm active): 000 | Bacteriostatic response S. aureus ([3]; 100 ppm active): 000 | Bacteriostatic response S. aureus ([3]; 1000 ppm active): 000 | Minimum Inhibitory Concentration S. aureus [3]: <1 ppm, active | Fungistatic response A. niger ([4]; 10 ppm active): 000 | Fungistatic response A. niger ([4]; 100 ppm active): 000 | Fungistatic response A. niger ([4]; 1000 ppm active): 000 | Minimum Inhibitory Concentration A. niger [4]: 10 ppm, active | Fungistatic response C. albicans ([5]; 10 ppm active): 000 | Fungistatic response C. albicans ([5]; 100 ppm active): 000 | Fungistatic response C. albicans ([5]; 1000 ppm active): 000 | Minimum Inhibitory Concentration C. albicans [5]: 10 ppm, active | Percent Kill An ([9]; 5 Minutes contact): 92.3 % K | Percent Kill An ([9]; 30 Seconds contact): 0.0 % K | Percent Kill An ([9]; 60 Seconds contact): 22.5 % K | Percent Kill Ca ([10]; 5 Minutes contact): >99.7 % K | Percent Kill Ca ([10]; 30 Seconds contact): >99.7 % K | Percent Kill Ca ([10]; 60 Seconds contact): >99.7 % K | Percent Kill Ec ([11]; 5 Minutes contact): >99.9 % K | Percent Kill Ec ([11]; 30 Seconds contact): >99.9 % K | Percent Kill Ec ([11]; 60 Seconds contact): >99.9 % K | Percent Kill Sa ([12]; 5 Minutes contact): >99.8 % K | Percent Kill Sa ([12]; 30 Seconds contact): 65.5 % K | Percent Kill Sa ([12]; 60 Seconds contact): 83.6 % K | Percent Kill Pa (ATCC 9027) (Pa (ATCC 9027); 5 Minutes contact): >99.9 % K | Percent Kill Pa (ATCC 9027) (Pa (ATCC 9027); 30 Seconds contact): 99.9 % K | Percent Kill Pa (ATCC 9027) (Pa (ATCC 9027); 60 Seconds contact): >99.9 % K | Percent Kill Pa ([13]; 5 Minutes contact): 99.9 % K | Percent Kill Pa ([13]; 30 Seconds contact): 99.9 % K | Percent Kill Pa ([13]; 60 Seconds contact): 99.9 % K
